Activity change, negative = cytotoxicity and AC35 data for 64 molecules are collected here from PubChem BioAssay AID624365 (Broad Institute, 2012).

Experiment [1] can be described thus: HepG2 cell viability loss, dose response, cytotoxicity control for LMP1 inhibitor project, CellTiter-Glo luminescence, dry powder (AID 624365). The settings on record: HepG2 viability, CellTiter-Glo luminescence, 48 h. A general note: In ATP-based viability assays light output follows the ATP content of the culture.
Experiment [2] concerns HepG2 viability, CellTiter-Glo luminescence, 48 h. Described as above.

Several values for one entry are separate records, joined by “and”; a condition that tells them apart may be missing. Identical values can stand only once. Inconclusive results are not listed. Activity calls are given as the source filed them.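 Rule for the calls: active = fitted curve drops past -35% activity change at a concentration up to twice the top valid dose tested; inconclusive = no clear call, values can overlap the other calls; inactive = activity opposite to the expected decrease, or the rest.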

For the molecule `O=C(Nc1cc(C(F)(F)F)cc(C(F)(F)F)c1)Nc1cnn(-c2ccc([N+](=O)[O-])cc2)c1C(F)(F)F`, the activity change, negative = cytotoxicity in experiment [1] (at 19.5 µM (top of the series)) was 11.8% (inactive). Still for that read-out and setting: the value for `CCN1CCN(C(c2cccnc2)c2cc(Cl)c3cccnc3c2O)CC1` (centres undefined) was -19.9% (inactive). For the molecule `COc1ccc(C(=O)Nc2ccc3[nH]ccc3c2)cc1`, the activity change, negative = cytotoxicity in experiment [1] (at 19.5 µM (top of the series)) is 1.7% (inactive). Take `COc1ccc(-c2csc3ncnc(NCCN4CCOCC4)c23)cc1`: in experiment [1] (at 19.5 µM (top of the series)), the activity change, negative = cytotoxicity is -1.72% (inactive). Take `CC1CN(C(=O)CSc2nnc3c4ccccc4n(Cc4cccc(Cl)c4)c3n2)CCN1C(=O)c1ccccc1F` (centres undefined): the activity change, negative = cytotoxicity in experiment [1] (at 19.5 µM (top of the series)) was -2.74% (inactive). On to `C[C@@H]1CN([C@@H](C)CO)C(=O)c2cc(NC(=O)Nc3ccc(C(F)(F)F)cc3)ccc2O[C@@H](C)CCCCO[C@H]1CN(C)Cc1ccc(C(F)(F)F)cc1`, for which the activity change, negative = cytotoxicity in experiment [1] (at 19.5 µM (top of the series)) is -1.82% (inactive). Consider `COCCCNC(=O)C(C)Sc1nnc2c3cc(C)ccc3n(Cc3ccccc3F)c2n1` (centres undefined), for which, in experiment [1] (at 19.5 µM (top of the series)), the activity change, negative = cytotoxicity was -14.5% (inactive). On the same count and under the same terms, next, `C[C@@H]1CN([C@@H](C)CO)C(=O)c2cccc(NC(=O)Nc3cccc4ccccc34)c2O[C@H]1CN(C)C(=O)Nc1ccc(C(F)(F)F)cc1`: -1.58% (inactive). In the case of `O=C(CCc1ccccc1)NC(c1cccs1)c1cc(Cl)c2cccnc2c1O` (centres undefined), the activity change, negative = cytotoxicity in experiment [1] (at 19.5 µM (top of the series)) is 1.94% (inactive). As to `C[C@@H]1CN([C@@H](C)CO)C(=O)c2cc(NC(=O)Nc3ccc4c(c3)OCO4)ccc2O[C@H]1CN(C)CC1CCCCC1`, the AC35 in experiment [2] was 28.9 µM. For the molecule `C/C(=N\NC(=S)Nc1cccc(Cl)c1)c1ccccn1`, the AC35 in experiment [2] was 13.2 µM. `Nc1ccn([C@@H]2O[C@H](CO)[C@@H](O)C2O)c(=O)n1` (some centres undefined): in experiment [2], the AC35 was 7.36 µM. Turning to `CCCSc1nnc2c3ccccc3n(Cc3ccccc3)c2n1`, the activity change, negative = cytotoxicity in experiment [1] (at 19.5 µM (top of the series)) is -1.67% (inactive).

In the case of `Cc1ccc(NC(=O)C2CCN(S(=O)(=O)c3ccc4c(c3)NC(=O)C(C)S4)CC2)cc1Cl` (centres undefined), in experiment [1] (at 19.5 µM (top of the series)), the activity change, negative = cytotoxicity was -15.1% (inactive). Take `C[C@H](CO)N1C[C@H](C)[C@@H](CN(C)Cc2ccc(-c3ccccc3)cc2)Oc2ccc(NC(=O)Nc3cccc4ccccc34)cc2CC1=O`: the AC35 in experiment [2] was 37 µM. Take `C/C(=N\NC(=S)Nc1ccccc1Cl)c1ccccn1`: the AC35 in experiment [2] is 9.26 µM. Turning to `C[C@@H]1CCCCO[C@H](CN(C)C(=O)NC2CCCCC2)[C@H](C)CN([C@@H](C)CO)C(=O)c2cc(NC(=O)C3CCCCC3)ccc2O1`, the activity change, negative = cytotoxicity in experiment [1] (at 19.5 µM (top of the series)) was 11% (inactive).

As for `COc1cccc(/C=N/Nc2ncnc3c2ncn3Cc2ccccc2)c1O`, the AC35 in experiment [2] was 26.4 µM. Turning to `C/C(=N\NC(=S)N1CCN(c2ccccn2)CC1)c1ccccn1`, the activity change, negative = cytotoxicity in experiment [1] (at 10 µM (top of the series)) is -18.8% (inactive). On to `C/C(=N\NC(=S)Nc1ccccc1)c1ccccn1`, for which the activity change, negative = cytotoxicity in experiment [1] (at 10 µM (top of the series)) is -2.52% (inactive). Take `CC12CCC3C(CC=C4CC(O)CCC43CO)C1CCC2OC(=O)c1ccccc1` (centres undefined): the activity change, negative = cytotoxicity in experiment [1] (at 19.5 µM (top of the series)) is 0.538% (inactive). For the molecule `CSC(=S)N/N=C(\C)c1cccc(C)n1`, in experiment [1] (at 19.5 µM (top of the series)), the activity change, negative = cytotoxicity is 1.36% (inactive).

`CSc1nc(-c2ccc(C)cc2)nc(C(Cl)Cl)n1`: in experiment [2], the AC35 was 36 µM. For `Cc1ccc(S(=O)(=O)NC(CC(C)C)C(=O)NCC(c2ccco2)N2CCCCC2)cc1` (centres undefined), the activity change, negative = cytotoxicity in experiment [1] (at 19.5 µM (top of the series)) was 14.4% (inactive). As to `O=c1[nH]c(=O)n([C@H]2C[C@H](O)[C@@H](CO)O2)cc1C(F)(F)F`, in experiment [2], the AC35 was 14.3 µM. Regarding `C[C@H](CO)N1C[C@H](C)[C@@H](CN(C)CC2CCCCC2)OCCCC[C@H](C)Oc2ccc(NC(=O)Nc3cccc4ccccc34)cc2C1=O`, the activity change, negative = cytotoxicity in experiment [1] (at 19.5 µM (top of the series)) is -6.9% (inactive). On to `C/C(=N\NC(=S)N1CCCCC1)c1cccc(C)n1`, for which the AC35 in experiment [2] was 2.55 µM. For the molecule `CCc1ccc(/C=C2\SC(=S)N(CCCC(=O)Nc3ccccn3)C2=O)cc1`, in experiment [1] (at 19.5 µM (top of the series)), the activity change, negative = cytotoxicity was -1.2% (inactive). In the case of `C=C1C[C@]23C[C@@]1(O)CC[C@H]2[C@@]12C=C[C@H](O)[C@@](C)(C(=O)O1)[C@H]2[C@@H]3C(=O)O`, in experiment [1] (at 12 µM (top of the series)), the activity change, negative = cytotoxicity was 9.94% (inactive). For the molecule `C[C@H](CO)N1C[C@H](C)[C@@H](CN(C)CC2CC2)OCCCC[C@H](C)Oc2ccc(NC(=O)Nc3cccc4ccccc34)cc2C1=O`, the AC35 in experiment [2] is 79.9 µM. With `C=CCN1Cc2ccccc2[C@@H]2OC(c3ccc(OCCCO)cc3)=N[C@]2(CCC(=O)OC(C)(C)C)C1=O`, the activity change, negative = cytotoxicity in experiment [1] (at 19.5 µM (top of the series)) is 4.76% (inactive). `C[C@@H]1CCCCO[C@H](CN(C)C(=O)c2ccccc2)[C@H](C)CN([C@@H](C)CO)C(=O)c2cc(NC(=O)Nc3ccc(F)cc3)ccc2O1`: the activity change, negative = cytotoxicity in experiment [1] (at 19.5 µM (top of the series)) is -6.27% (inactive).

Take `CCn1c2ccccc2c2cc(/C=N/n3cnnc3)ccc21`: the AC35 in experiment [2] was 22.1 µM.

On to `COc1ccc2[nH]c(C(=O)N/N=C/c3ccc(O)cc3O)cc2c1`, for which, in experiment [2], the AC35 is 46.4 µM.

Regarding `Cc1ccc(S(=O)(=O)Nc2ccc3c(c2)C(=O)N([C@@H](C)CO)C[C@H](C)[C@@H](CN(C)C(=O)CCC(F)(F)F)OCCCC[C@H](C)O3)cc1`, the activity change, negative = cytotoxicity in experiment [1] (at 19.5 µM (top of the series)) is 1.23% (inactive). On to `CC(=O)Nc1nc(C)c(-c2csc(Nc3ccc(O)cc3)n2)s1`, for which the AC35 in experiment [2] was 19.6 µM. Regarding `COc1ccc2nc(Nc3nc(C)c(CCC(C)C)c(=O)[nH]3)nc(C)c2c1`, in experiment [2], the AC35 was 3.44 µM. In the case of `C/C=C/C/C=C/CCC(=O)[C@H]1O[C@H]1C(N)=O`, the AC35 in experiment [2] is 14 µM and 60.1 µM.

With `Cc1cc(NC(=O)c2ccc3c(c2)OCCO3)no1`, in experiment [1] (at 19.5 µM (top of the series)), the activity change, negative = cytotoxicity is 14.9% (inactive). Regarding `CNC[C@@H]1Oc2ccc(NS(=O)(=O)c3cn(C)cn3)cc2CC(=O)N([C@H](C)CO)C[C@@H]1C`, in experiment [1] (at 21 µM (top of the series)), the activity change, negative = cytotoxicity is -1.51% (inactive).

Consider `C[C@@H]1CCCCO[C@H](CN(C)C(=O)CCC(F)(F)F)[C@H](C)CN([C@@H](C)CO)C(=O)c2cc(NC(=O)CCC(F)(F)F)ccc2O1`, for which the activity change, negative = cytotoxicity in experiment [1] (at 19.5 µM (top of the series)) is 6.76% (inactive). In the case of `C[C@H](CO)N1C[C@H](C)[C@H](CN(C)C(=O)Nc2ccc(C(F)(F)F)cc2)OCCCC[C@H](C)Oc2ccc(NC(=O)Nc3ccc(F)cc3)cc2C1=O`, in experiment [2], the AC35 was 55.6 µM.

In the case of `C[C@@H]1CN([C@@H](C)CO)C(=O)c2cc(NC(=O)Nc3ccc(C(F)(F)F)cc3)ccc2O[C@@H](C)CCCCO[C@@H]1CN(C)CC1CCCCC1`, in experiment [2], the AC35 was 40.7 µM. In the case of `C/C(=N\NC(=S)Nc1ccc(C)cc1)c1ccccn1`, in experiment [2], the AC35 was 11.9 µM.

In the case of `O=C1/C(=C/c2ccncc2)SC(=S)N1Cc1ccccc1`, the activity change, negative = cytotoxicity in experiment [1] (at 19.5 µM (top of the series)) is -5.23% (inactive).

Turning to `COc1ccc(-c2cc3nc4n(c(=O)c3s2)CCC4)cc1`, the activity change, negative = cytotoxicity in experiment [1] (at 19.5 µM (top of the series)) is -14.3% (inactive).

Take `C=C1C[C@]23C[C@@]1(O)CC[C@@H]2c1cccc(C)c1[C@@H]3C(=O)O`: the activity change, negative = cytotoxicity in experiment [1] (at 19.5 µM (top of the series)) is -23.5% (inactive). With `C[C@H]1CCCCO[C@@H](CN(C)CC2CCCCC2)[C@@H](C)CN([C@@H](C)CO)C(=O)c2cc(NC(=O)C3CCCCC3)ccc2O1`, the AC35 in experiment [2] was 21.4 µM. `Cc1ccnc(NC(=O)c2ccc(C(=O)c3ccccc3)cc2)c1`: the activity change, negative = cytotoxicity in experiment [1] (at 19.5 µM (top of the series)) is -6.85% (inactive). With `Oc1cccc(C(Nc2nccs2)c2ccc3cccnc3c2O)c1` (centres undefined), in experiment [1] (at 19.5 µM (top of the series)), the activity change, negative = cytotoxicity is 3.87% (inactive). In the case of `C[C@@H]1CCCCO[C@H](CN(C)CC2CCCCC2)[C@H](C)CN([C@@H](C)CO)C(=O)c2cc(NC(=O)NC3CCCCC3)ccc2O1`, the activity change, negative = cytotoxicity in experiment [1] (at 19.5 µM (top of the series)) is -0.214% (inactive). In the case of `Cc1c(NC(=O)c2cccc(NC(=O)COc3ccccc3C#N)c2)c(=O)n(-c2ccccc2)n1C`, in experiment [1] (at 19.5 µM (top of the series)), the activity change, negative = cytotoxicity was 0.795% (inactive). Turning to `CC(C)=CCN(C(=O)C#Cc1ccccc1)[C@H](CO)c1ccccc1`, the AC35 in experiment [2] was 20.3 µM. On to `O=c1[nH]c(Nc2nc3ccccc3o2)nc2c1CCCC2`, for which the activity change, negative = cytotoxicity in experiment [1] (at 19.5 µM (top of the series)) is -6.44% (inactive). With `CC1=C(C(=O)OCc2ccc3c(c2)OCO3)C(c2ccc(F)cc2)NC(=O)N1` (centres undefined), the activity change, negative = cytotoxicity in experiment [1] (at 19.5 µM (top of the series)) is 2.83% (inactive). In the case of `COc1ccc(NC(=O)c2ccc(OC(C)C(=O)O)cc2)cc1Cl` (centres undefined), the activity change, negative = cytotoxicity in experiment [1] (at 21 µM (top of the series)) was -17.9% (inactive). With `CCc1ccc(/C=C/C(=O)C2C(=O)c3ccccc3C2=O)cc1`, the activity change, negative = cytotoxicity in experiment [1] (at 19.5 µM (top of the series)) is -7.16% (inactive). In the case of `C/C(=N\NC(=S)N1CC2CCC(CC2)C1)c1cccc(C)n1`, the activity change, negative = cytotoxicity in experiment [1] (at 19.5 µM (top of the series)) is -9.43% (inactive). For the molecule `C[C@@H]1CCCCO[C@H](CN(C)S(=O)(=O)c2ccccc2)[C@@H](C)CN([C@@H](C)CO)C(=O)c2cc(N(C)C)ccc2O1`, the activity change, negative = cytotoxicity in experiment [1] (at 19.5 µM (top of the series)) is -0.756% (inactive). In the case of `O=C(CSc1nnc2c3ccccc3n(Cc3ccccc3)c2n1)NCc1ccco1`, the AC35 in experiment [2] was 19.5 µM. As to `Fc1ccc2c(c1)c1nnc(SCCN3CCOCC3)nc1n2Cc1ccccc1`, in experiment [2], the AC35 was 33.7 µM. In the case of `C[C@@H]1CCCCO[C@@H](CN(C)Cc2ccccc2)[C@H](C)CN([C@H](C)CO)C(=O)c2cc(NC(=O)Nc3ccc4c(c3)OCO4)ccc2O1`, the activity change, negative = cytotoxicity in experiment [1] (at 19.5 µM (top of the series)) was -6.99% (inactive).

With `CCc1sc(C(=O)Nc2ncccc2O)cc1C`, the activity change, negative = cytotoxicity in experiment [1] (at 19.5 µM (top of the series)) was -0.832% (inactive). For the molecule `c1ccc(-c2cn3c4c(sc3n2)CCCC4)cc1`, in experiment [1] (at 19.5 µM (top of the series)), the activity change, negative = cytotoxicity was -13.4% (inactive).
